In one data set the test system is MGMT− LN229 cells. In words: Clonogenic survival assay, LN229 MGMT- cells. The class given is cell-based, human. On the procedure:
In vitro clonogenic survival assays (CSAs) were performed using four isogenic LN229 glioblastoma cell lines.
Clonogenic Cell Survival Assay. Cells of each line were pretreated with the test drug in culture for 48-72 hours at the specified dilutions. The cells were then immediately seeded in six-well plates in triplicate at three-fold dilutions, ranging from 9000 to 37 cells per well. Depending on colony size, these plates were kept in the incubator for 10 to 14 days. After incubation, colonies were washed in phosphate-buffered saline (PBS) and stained with crystal violet. Colonies were counted by hand. Counts were normalized to plating efficiency of the corresponding treatment condition.

The test system of the next data set is LN229 MGMT+ shMSH3 cells. In words: Short-term viability assay, LN229 MGMT+ shMSH3. The class given is cell-based. The note with it: Homo sapiens, LN-229, Table III, read-out: IC50 against LN229 cell lines, MGMT MMR−. Here is the method:
The activity of KL-50 in MGMT-LN229 cells engineered to lack expression of other key MMR proteins including MSH6, MLH1, PMS2, and MSH3 was also confirmed. Western blotting was performed in LN229 MGMT+/−cells with stable expression of shRNA targeting MSH6, MLH1, PMS2, or MSH3 to confirm depletion of the shRNA targets. In shMSH6 cells, there was reduced expression of MSH2, and in shMLH1 cells, there was loss of PMS2, due to destabilization in the setting of loss of their heterodimeric partners. GAPDH serves as loading control. […] Short-term viability assay curves for KL-50 in LN229 MGMT+/−, MMR+/shMSH6 cells. […] Short-term viability assay curves for KL-50 in LN229 MGMT+/−, MMR+/shMLH1 cells. […] Short-term viability assay curves for KL-50 in LN229 MGMT+/−, MMR+/shPMS2 cells. […] Short-term viability assay curves for KL-50 in LN229 MGMT+/−, MMR+/shMSH3 cells.
MMR Protein shRNA Knockdown. pGIPZ lentiviral shRNA vectors targeting MSH2, MSH6, MLH1, PMS2, and MSH3 were purchased from Horizon Discovery (Table IV). […]
Short-term Cell Viability Assay. […] Cells were imaged on a Cytation 3 imaging reader (BioTek) and quantified using CellProfiler software. For in vitro short-term growth delay experiments, IC50 values were determined from the nonlinear regression equation, [inhibitor] vs normalized response with variable slope.

Data set [1] relates to LN229 MGMT−/MMR− flank tumors. In words: Murine flank tumor model, LN229 MGMT-/MMR-. The class given is in vivo. The note with it: for tumor growth, MGMT−/MMR− flank tumors: P.O.; for median OS: LN229 MGMT−/MMR− flank tumor-bearing mice, 5 mg/kg. The source says:
FIGS. 9A-91: KL-50 is safe and efficacious on both MGMT−/MMR+ and MGMT−/MMR-flank tumors over a wide range of treatment regimens and conditions. […] (FIG. 9C) Mean body weight of mice during LN229 flank tumor experiments. (FIG. 9D) Kaplan-Meier analysis of LN229 MGMT−/MMR− xenograft flank tumor-bearing mice to determine survival rate based on death, removal from study if mouse body weight loss exceeded 20% of initial body weight, or if tumor volume exceeded 2000 mm^3. […] (FIGS. 9H-91) Xenograft LN229 MGMT−/MMR+ and LN229 MGMT−/MSH6—flank tumors with a larger average starting tumor size of −400 mm^3 and −350 mm^3 respectively, treated with 3 weekly cycles of P.O administration of 10% cyclodextrin (n=4) or KL-50 (n=4, 3 cycles of 25 mg/kg on Monday, Wednesday, and Friday). The study period was limited by control groups which had to be euthanized for exceeding the ethical maximum allowed tumor size, thus ending the study. In all panels, points, mean; error bars, SEM; *, P<0.05; **, P<0.01; ***, P<0.001; ****, P<0.0001; ns, not significant.
Mouse Protocols for Flank Studies. A mouse tumor model was established by subcutaneously implanting human LN229 (MGMT−/MMR+) or LN229 (MGMT−/MMR−) cells. Cells were cultured as a monolayer in DMEM+10% FBS (Thermo Fisher) at 37° C. in a humidified atmosphere with 5% CO2 and passaged between one and three days prior to implantation and media was replaced every 2-3 days as needed to maintain cell viability. Cells were not allowed to exceed 80% confluency. On the day of implantation, cells were trypsinized, washed with complete media and pelleted by centrifugation at 1200 rpm for 5 minutes. The supernatant was decanted, and cells were washed three times with sterile PBS and pelleted by centrifugation. During the final centrifugation, viability was determined using trypan blue exclusion. Cells were resuspended in sterile PBS and diluted 1:1 in Matrigel (Coming, Cat #47743-716) for a final concentration of 5×10^6 cells/100 μL. 5 million cells were injected into the flank of female nude mice (Envigo, Hsd:Athymic Nude-Fox1nu, 3-4 weeks age, 15 g). […] Caliper measurements were obtained during the dosing period and at least two weeks following treatment. Mice were euthanized if body weight loss exceeded 20% or if tumor volume increased to greater than 2000 mm^3. Kaplan-Meier analysis was used to evaluate survival rate based on death or removal from study.

For `NC(=O)c1ncn2c(=O)n(CCF)nnc12` [KL-50], the “clonogenic survival, antitumor activity in MGMT− cells” value in the data set with MGMT− LN229 cells (independent of MMR status) is listed as “robust antitumor activity”. Moreover, the concentration for half-maximal inhibition (IC50) with LN229 MGMT+ shMSH3 cells came to 328 ± 26 µM. The “tumor growth, MGMT−/MMR− flank tumors” value in data set [1] (5 mg/kg MWF x 3 weeks) is given as “potently suppressed tumor growth”. The “body weight during flank tumor experiments” value in data set [1] (5 mg/kg MWF x 3 weeks, compared to TMZ or control) is recorded as “no significant changes in body weight”. In addition, the “median OS” value in data set [1] (Kaplan-Meier) was “greater than 15 weeks”. For the same molecule, the “increase in median OS for KL-50 vs TMZ” value in data set [1] (Kaplan-Meier, MGMT−/MMR− flank) is on record as “greater than 5 week”.
With `Cn1nnc2c(C(N)=O)ncn2c1=O` [TMZ, 4-methyl-5-oxo-2,3,4,6,8-pentazabicyclo[4.3.0]nona-2,7,9-triene-9-carboxamide, reference compound], the “clonogenic survival, activity in MGMT−, MMR+ cells” value with MGMT− LN229 cells is reported as “robust tumor cell killing”. For the same molecule, the “clonogenic survival, activity in MMR− cells” value in the data set on MGMT− LN229 cells (isogenic cells lacking MMR) is “abolished”. Also, the half-inhibitory concentration (IC50) in the data set with LN229 MGMT+ shMSH3 cells was found to be 649 ± 32 µM. Besides, the “tumor growth, MGMT−/MMR− flank tumors” value in data set [1] (5 mg/kg MWF x 3 weeks) is recorded as “no efficacy”. The “median OS” value in data set [1] (Kaplan-Meier) came out at 10 weeks.

The IC50 is the concentration needed to halve the response being measured.

(Values after US20240294478A1, “ANTI-CANCER COMPOUNDS AND METHODS OF USE” (YALE UNIVERSITY, priority 2021, published 2024).)
